# Test results as given in US6235891A, “Glucocorticoid receptor agonist and decreased PP5” (South Alabama Medical Science Foundation, priority 1999, dated 2001).
# Key:
# Type in all cases: cell-based, human
# [1] = test system: A549 cells; assay: A549 cell proliferation (viable cell counts); conditions: 300 nM, all 5 days
# Description: A549 cells were treated with ISIS 15534 or its scrambled control, ISIS 15521 at a concentration of 300 nM. Each day for the next 5 days, viable cells were counted.
# A549 cells were seeded in 12-well tissue culture plates at about 50% confluence in DMEM containing 10% fetal bovine serum. The next day, cells were treated with the PP5-specific antisense oligonucleotide, ISIS 15534, or its scrambled control, ISIS 15521, at a final concentration of 300 nM as described in Example 7. On each of the following 5 days, cultures from three wells of each treatment gruop were trypsinized, collected and counted. Cell viability was determined by trypan blue staining, and the results given are the mean of three independent experiments.
# A549 cells were seeded in 12-well tissue culture plates at a density of 5.0×10^4 cell/dish. On the next day, the cells were treated with PP5 specific antisense oligonucleotides (ISIS 15534) or the scrambled mismatch control (ISIS 15521) at a final concentration of 300 nM as described above. On each of the next five days, the cell cultures were treated briefly with trypsin to detach the cells from the dish (three wells from each test group). The number of cells was then determined by counting using a hemacytometer. Cell viability was determined with trypan blue staining. The percentage of viable cells was calculated by dividing the number of cells excluding trypan blue by the total number of cells, and the results are reported as the mean +/- SD of data collected from three independent experiments.
# The antiproliferative effect of dexamethasone correlates with the presence of wild type p53 and the expression of p21^Waf1/Cip1 mRNA. Referring to FIGS. 1A-1C, the effect of dexamethasone on cell proliferation in p53-defective T-24 human bladder carcinoma, p53-null TR9 human fibroblasts (Webster et al. 1993; Maiyar et al. 1996), and p53 wild-type A549 human lung carcinoma cells was determined by treating cells in log-phase growth with a single dose of 100 nM dexamethasone and counting the number of cells in treated (.cndot.) and untreated (.box-solid.) cultures for six consecutive days following treatment. Each point represents the mean of triplicate dishes with error bars representing SE. Under similar conditions, treatment with ISIS 15534, a potent inhibitor of PP5 gene expression, inhibited growth in A459 but not T-24 or TR9 cells (Zuo et al. 1998). Referring to FIG. 1D, a comparison of p21^Waf1/Cip1 (p21) and serum glucocorticoid inducible protein kinase (sgk) mRNA levels in p53 competent (Lanes 3, 4) and p53 deficient (Lanes 1, 2, 5, 6) cell cultures after dexamethasone treatment is shown. Cell cultures in logphase growth were treated with 100 nM dexamethasone (+) or vehicle alone as a control (-). After 24 hours total mRNA was prepared and analyzed for p21 and sgk mRNA levels by Northern analysis.
# [2] = test system: A549 cells; assay: [3H]-thymidine incorporation (DNA synthesis) in A549 cells; conditions: 300 nM, all 5 days
# Description: Cells were pulse-labeled with [^3 H]-thymidine for 5 hours at intervals over the next five days. Cells were lysed and [^3 H]-thymidine incorporation (indicative of DNA synthesis) was determined by liquid scintillation counting.
# At timed intervals during the next 5 days, cells were pulse-labeled with [^3 H]-thymidine (0.5 μCi/ml) for 5 hours. […] The results given are the mean of three independent experiments.
# [3] = test system: PP5 mRNA; assay: Northern blot analysis of PP5 mRNA expression in A549 cells; conditions: doses of 25 to 500 nM
# Text: The oligonucleotides shown in Table 1 were designed using the Genbank sequences HSSERTHRP (Genbank accession number X92121), HSRNAPPP5 (Genbank accession number X89416) and PPP5C (Genbank accession number U25174), synthesized and tested for inhibition of PP5 mRNA expression in A549 cells using a Northern blot assay. All oligonucleotides shown in Table 1 are chimeric oligonucleotides with central 2'-deoxy "gaps," which have phosphorothioate backbones, flanked on both sides by 2'-methoxyethoxy (2'-MOE) "wings" (shown in bold), which have phosphodiester backbones. All cytosines in the 2'-MOE wings are 5-methylcytosines.
# In the initial screen, A549 cells were treated with oligonucleotides at a concentration of 300 nM oligonucleotide for four hours in the presence of […] lipofectin. Results were normalized and expressed as a percent of control. The effect of each oligonucleotide on levels of PP5 mRNA, expressed as approximate percent inhibition compared to control, is shown in Table 1. In this initial screen, oligonucleotides giving a reduction of PP5 mRNA of approximately 50% or greater were considered active. […] These sequences (SEQ ID NO: 1, 2, 3, 4, 6, 7 and 12, respectively, SEQ ID Nos shown in bold in Table 1) are therefore preferred.
# These oligonucleotides were tested for their ability to reduce PP5 mRNA levels in A549 cells, using oligonucleotide doses of 25 to 500 nM.
# The human lung tumor cell line A549 was obtained from the American Type Culture Collection (Rockville Md.) and were grown in DMEM (Gibco BRL, Gaithersburg Md.), supplemented with 10% fetal calf. Cells were seeded on 60 mm plates. When they reached 70% confluency, they were washed with DMEM and 1 ml of DMEM containing 15 μg/ml DOTMA/DOPE (Lipofectin®, GIBCO-BRL) and oligonucleotide at desired concentration was added. Duplicate dishes were used for each treatment condition. After 4 hours of treatment at 37°, cells were washed and cultured in fresh DMEM containing 10% fetal bovine serum for an additional 17 hours. Cells were then harvested and total RNA was extracted with TRIzol Reagent (GIBCO-BRL) according to manufacturer's protocol. Total RNA (20 μg) was fractionated on a 1% agarose gel containing formaldehyde, and transferred to a DURLON-UV (Stratagene) nylon membrane. Following UV crosslinking, the filters were hybridized with the appropriate protein phosphatase probe. The ^32 P-labeled human PP cDNA probes are generated with DECAPrime® DNA Labeling Kit (Ambion) according to the manufacturer's protocol. Hybridization was performed in a hybridization solution containing 50% formamide at 42° for 16 hours. This was followed by two low stringency washes (2×SSC) at room temperature and two high stringency washes (0.1×SSC/0.5% SDS) at 55° C. Hybridization signals were visualized by autoradiography, and filters were then stripped and reprobed with a ^32 P-labeled glyceraldehyde-3-phosphate dehydrogenase (GAPDH) probe to confirm equal loading. The densities of hybridization signals were measured with the NIH Image program (ImagePC).
# The cells were harvested, and total RNA was extracted with TRIzol® Reagent according to the methods of the manufacturer. Total RNA (20 μg) was fractionated on 1% agarose gels containing formaldehyde and transferred to DURLON-UV nylon membranes (Stratagene). Following UV cross-linking, the filters were hybridized with a [α^32 P]probe for human PP5. The human PP5 cDNA probe was generated from the full length coding region of PP5 and [α^32 P]-dATP was labeled with DECAprime® DNA Labeling Kit according to the manufacturer's protocol. Hybridization was performed in the presence of 50% formamide, 0.1 M Pipes, 0.8 M NaCl, 5×Denhardt's solution, 100 μg/ml denatured herring sperm DNA, 1×10^6 cpm/ml [α-^32 P]-labeled probe and 10% dextran sulfate at 42° C. for 16 hours. Following hybridization, the membrane was subjected to two low stringency washes (2×SSC) at room temperature and then two high stringency washes (0.1×SSC/0.5% SDS) at 55° C. […]
substance,measurement,setting,value
"ISIS 15521: mismatch (scrambled) control oligonucleotide, phosphodiester wings, phosphorothioate gap; GTGCGATCGTTGCGGTTAGC, SEQ ID NO: 14 (sugars by position and backbone not given here; phosphodiester wings, phosphorothioate gap) [reference compound]",Proliferation relative to untreated control,[1],approximately equivalent to untreated control
same,[3H]-thymidine incorporation relative to untreated control,[2],approximately equivalent to untreated control
same,Inhibition of PP5 mRNA levels at any of the doses tested,[3],≤ 20%
